Results: patent US20250257061A1, “COMPOSITIONS AND METHODS FOR TREATING CANCER AND REDUCING WNT MEDIATED EFFECTS” (StemSynergy Therapeutics, Inc., priority 2024, published 2025)
Where two headings read alike, the source gives them in different places. Each block holds one molecule with its values, some of them ahead of it.

How the values were obtained:
[1] = system: Wnt reporter (TCF/LEF1 promoter); test: HEK STF293 Wnt reporter (TOPFlash) luciferase assay, Steady Glo normalised to Cell Titer; type: cell-based, human; conditions: HEK STF293 cells, Wnt3a-conditioned media, read-out: TOPFlash IC50 category
Description: All compounds were tested using the human cell line HEK STF293. This cell line carries a Wnt reporter (TCF/LEF1 promoter), which drives expression of the firefly luciferase protein. The level of Wnt activity is directly correlated with the level of luciferase activity (determined using a simple assay). Compounds that inhibit Wnt signaling by reducing luciferase activity in these two cell lines are further tested biochemically. […] Compounds were further tested in a Viability assay using Wnt-dependent HCT116 cell line. Compounds were prepared as 10 mM stocks for each compound in DMSO. Dilutions were prepared in a 96-well plate in DMSO. The stock dilutions are as follows: 10 mM, 1 mM, 100 μM, 10 μM, 100 nM, and 10 nM. Plates were sealed and stored at −20° C. […] On the first day, Wnt3a-conditioned media (1:1) were added along with diluted compounds (1:100). […] The final concentrations should therefore be 100 μM, 10 μM, 1 μM, 100 nM, 10 nM, and 1 nM. On the second day, the media was removed and 75 μL of Passive Lysis Buffer (Promega) is added to each well. The plate was shaken at 130 rpm for 15 minutes. For the Steady Glo assay, 45 μL of the lysis was removed and added to a white 96-well plate containing 45 μL/well of Steady Glo solution (Promega). For the Cell Titer assay, 25 μL of the lysis was transferred to a white 96-well plate containing 25 μL/well of Cell Titer solution (Promega). Both Steady Glo and Cell Titer assays were read with a luminescence plate reader. When determining EC50, the Steady Glo values were divided by the Cell Titer values to normalize for cell number. All compounds were tested using the human cell line HEK STF293. This cell line carries a Wnt reporter (TCF/LEF1 promoter), which drives expression of the firefly luciferase protein. The level of Wnt activity is directly correlated with the level of luciferase activity (determined using a simple assay). Compounds that inhibit Wnt signaling by reducing luciferase activity in these two cell lines are further tested biochemically. […] Compounds were further tested in a Viability assay using Wnt-dependent HCT116 cell line. Compounds were prepared as 10 mM stocks for each compound in DMSO. Dilutions were prepared in a 96-well plate in DMSO. The stock dilutions are as follows: 10 mM, 1 mM, 100 μM, 10 μM, 100 nM, and 10 nM. Plates were sealed and stored at −20° C. […] On the first day, Wnt3a-conditioned media (1:1) were added along with diluted compounds (1:100). […] The final concentrations should therefore be 100 μM, 10 μM, 1 μM, 100 nM, 10 nM, and 1 nM. On the second day, the media was removed and 75 μL of Passive Lysis Buffer (Promega) is added to each well. The plate was shaken at 130 rpm for 15 minutes. For the Steady Glo assay, 45 μL of the lysis was removed and added to a white 96-well plate containing 45 μL/well of Steady Glo solution (Promega). For the Cell Titer assay, 25 μL of the lysis was transferred to a white 96-well plate containing 25 μL/well of Cell Titer solution (Promega). Both Steady Glo and Cell Titer assays were read with a luminescence plate reader. When determining EC50, the Steady Glo values were divided by the Cell Titer values to normalize for cell number. All compounds were tested using the human cell line HEK STF293. This cell line carries a Wnt reporter (TCF/LEF1 promoter), which drives expression of the firefly luciferase protein. The level of Wnt activity is directly correlated with the level of luciferase activity (determined using a simple assay). Compounds that inhibit Wnt signaling by reducing luciferase activity in these two cell lines are further tested biochemically. […] Compounds were further tested in a Viability assay using Wnt-dependent HCT116 cell line. Compounds were prepared as 10 mM stocks for each compound in DMSO. Dilutions were prepared in a 96-well plate in DMSO. The stock dilutions are as follows: 10 mM, 1 mM, 100 μM, 10 μM, 100 nM, and 10 nM. Plates were sealed and stored at −20° C. […]

[2] = system: Wnt-dependent HCT116 cell line; test: Viability assay using Wnt-dependent HCT116 cell line (Cell Titer Glo); type: cell-based; conditions: HCT116 cells, read-out: Viability IC50 category
Description: All compounds were tested using the human cell line HEK STF293. This cell line carries a Wnt reporter (TCF/LEF1 promoter), which drives expression of the firefly luciferase protein. The level of Wnt activity is directly correlated with the level of luciferase activity (determined using a simple assay). Compounds that inhibit Wnt signaling by reducing luciferase activity in these two cell lines are further tested biochemically. […] Compounds were further tested in a Viability assay using Wnt-dependent HCT116 cell line. HEK293 cells were seeded in a 6-well plate at approximately 8.0×10^5 cells (2 mL per well). On the first day, Wnt3a-conditioned media (1:1) and compounds (1:100) were added to the plated cells. The final concentrations of compounds were 1 μM, 500 nM, and 100 nM. Vehicle (DMSO) and a Wnt3a-conditioned media plus Vehicle samples were also prepared as controls. Lysates were collected (with non-denaturing lysis buffer) after 24 hours incubation, and protein concentrations determined by Bradford Assay. Immunoblotting with an anti-beta-catenin antibody (equivalent amounts of protein/lane for each condition) were subsequently performed to determine beta-catenin levels. HCT116 cells were seeded at 2,500 cells/well in a 96-well dish (Volume: 100 μL/well). On the second day, the 10 mM stock solution of each test compound was thawed at room temperature. Dilutions of the test compound were prepared in DMSO in a V-bottom 96-well plate. The stock compound solution, DMSO-diluted compound solutions, and DMSO were further diluted 500-fold in cell culture media, and 100 μL of the compound- or DMSO-containing cell culture media was added to each well of the cells. […] The final DMSO concentration was 0.1% in all wells. On the fifth day, 150 μL of media was removed from each well. 50 μL/well Cell Titer Glo reagent (Promega) was added to each well. The plate was shaken at 130 rpm for 15 minutes at room temperature, and the cell viability was determined using a luminescence plate reader. All compounds were tested using the human cell line HEK STF293. This cell line carries a Wnt reporter (TCF/LEF1 promoter), which drives expression of the firefly luciferase protein. The level of Wnt activity is directly correlated with the level of luciferase activity (determined using a simple assay). Compounds that inhibit Wnt signaling by reducing luciferase activity in these two cell lines are further tested biochemically. […] Compounds were further tested in a Viability assay using Wnt-dependent HCT116 cell line. HEK293 cells were seeded in a 6-well plate at approximately 8.0×10^5 cells (2 mL per well). On the first day, Wnt3a-conditioned media (1:1) and compounds (1:100) were added to the plated cells. The final concentrations of compounds were 1 μM, 500 nM, and 100 nM. Vehicle (DMSO) and a Wnt3a-conditioned media plus Vehicle samples were also prepared as controls. Lysates were collected (with non-denaturing lysis buffer) after 24 hours incubation, and protein concentrations determined by Bradford Assay. Immunoblotting with an anti-beta-catenin antibody (equivalent amounts of protein/lane for each condition) were subsequently performed to determine beta-catenin levels. HCT116 cells were seeded at 2,500 cells/well in a 96-well dish (Volume: 100 μL/well). On the second day, the 10 mM stock solution of each test compound was thawed at room temperature. Dilutions of the test compound were prepared in DMSO in a V-bottom 96-well plate. The stock compound solution, DMSO-diluted compound solutions, and DMSO were further diluted 500-fold in cell culture media, and 100 μL of the compound- or DMSO-containing cell culture media was added to each well of the cells. […] The final DMSO concentration was 0.1% in all wells. On the fifth day, 150 μL of media was removed from each well. 50 μL/well Cell Titer Glo reagent (Promega) was added to each well. The plate was shaken at 130 rpm for 15 minutes at room temperature, and the cell viability was determined using a luminescence plate reader. […]

[3] = Homo sapiens, STF/293, Examples for Formulae (IV), (V), (VI), and (VII)
[4] = Homo sapiens, HCT-116, Examples for Formulae (IV), (V), (VI), and (VII)
[5] = Examples for Formulae (IV), (V), (VI), and (VII)
[6] = Homo sapiens, STF/293, Examples for Formulae (VIII), (IX), and (X)
[7] = Homo sapiens, HCT-116, Examples for Formulae (VIII), (IX), and (X)
[8] = Homo sapiens, STF/293, Examples for Formulae (I), (II), and (III)
[9] = Homo sapiens, HCT-116, Examples for Formulae (I), (II), and (III)

SMILES: Cc1onc(-c2ccccc2F)c1C(=O)Nc1nc(-c2ccccn2)cs1 [Example 7]
IC50 [1, 3]: 200 to 500 nM
IC50 [2, 4]: 200 to 500 nM

SMILES: Cc1cc(C(=O)Nc2nc(-c3ncccc3C)co2)n(-c2ccc(S(C)(=O)=O)cc2)n1 [Example 19]
IC50 [1, 6]: < 200 nM
IC50 [2, 7]: 200 to 500 nM

SMILES: Cc1nn(-c2ccc(F)cc2F)c(C)c1C(=O)Nc1nc(-c2ccccn2)cs1 [Example 8]
IC50 [1, 8]: 500 to 1000 nM
IC50 [2, 9]: 500 to 1000 nM

SMILES: Cc1nc(-c2ccccc2F)c(C(=O)Nc2nc(-c3ccccn3)cs2)o1 [Example 10]
IC50 [1, 3]: < 200 nM
IC50 [2, 4]: 200 to 500 nM

SMILES: O=C(Nc1nc(-c2ccccn2)cs1)c1cnnn1-c1cccc(F)c1 [Example 18]
IC50 [1, 8]: 200 to 500 nM
IC50 [2, 9]: 200 to 500 nM

SMILES: O=C(Nc1nc(-c2ccccn2)cs1)c1c(C(F)(F)F)nn(-c2ccccc2)c1C(F)(F)F [Example 17]
IC50 [1, 8]: 1000 to 10000 nM
IC50 [2, 9]: 1000 to 10000 nM

SMILES: Cc1nn(Cc2ccc(F)cc2)c(Cl)c1C(=O)Nc1nc(-c2ccccn2)cs1 [Example 9]
IC50 [1, 8]: 500 to 1000 nM
IC50 [2, 9]: 500 to 1000 nM

SMILES: Cn1nc(C(=O)Nc2nc(-c3ccccn3)cs2)c(-c2ccc(F)cc2)n1 [Example 19]
IC50 [1, 8]: 200 to 500 nM
IC50 [2, 9]: 200 to 500 nM

SMILES: Cc1onc(-c2cccs2)c1C(=O)Nc1nc(-c2ccccn2)cs1 [Example 1]
IC50 [1, 3]: < 200 nM
IC50 [2, 4]: 200 to 500 nM

SMILES: O=C(Nc1nc(-c2ccccn2)cs1)c1cccnc1Oc1ccc(C(F)(F)F)cc1 [Example 13]
IC50 [1, 6]: 200 to 500 nM
IC50 [2, 7]: 500 to 1000 nM

SMILES: COc1ccc(S(=O)(=O)N(C)c2ncc(C(=O)O)o2)cc1 [Example 40]
IC50 [1, 5]: 200 to 500 nM
IC50 [2, 5]: 200 to 500 nM

SMILES: Cc1nc(-c2ccc(Cl)cc2)c(C(=O)Nc2nc(-c3ccccn3)cs2)o1 [Example 9]
IC50 [1, 3]: < 200 nM
IC50 [2, 4]: < 200 nM

SMILES: O=C(Nc1nc(-c2ccccn2)cs1)c1ccc(=O)n(-c2ccc(F)cc2)c1 [Example 2]
IC50 [1, 6]: 200 to 500 nM
IC50 [2, 7]: 500 to 1000 nM

SMILES: Cc1c(C(=O)Nc2nc(-c3ccccn3)cs2)cnn1Cc1ccccc1 [Example 1]
IC50 [1, 8]: 1000 to 10000 nM
IC50 [2, 9]: 1000 to 10000 nM

SMILES: Cc1ccc(Cn2nc(C)c(C(=O)Nc3nc(-c4ccccn4)cs3)c2C)cc1 [Example 10]
IC50 [1, 8]: 500 to 1000 nM
IC50 [2, 9]: 1000 to 10000 nM

SMILES: COc1cc(F)ccc1-c1ncoc1C(=O)Nc1nc(-c2ccccn2)cs1 [Example 46]
IC50 [1, 5]: 500 to 1000 nM
IC50 [2, 5]: 500 to 1000 nM

SMILES: Cc1onc(-c2c(F)cccc2Cl)c1C(=O)Nc1nc(-c2ccccn2)cs1 [Example 14]
IC50 [1, 3]: < 200 nM
IC50 [2, 4]: 200 to 500 nM

More lines, main results first:

IC50 [2, 5]: 1000 to 10000 nM
SMILES: CN(C(=O)c1ccc(C(F)(F)F)cc1)c1ncc(C(=O)Nc2nc(-c3ccccn3)cs2)o1 [Example 35]
IC50 [1, 5]: 500 to 1000 nM

IC50 [2, 4]: 500 to 1000 nM
SMILES: Cc1nc(N(C)S(=O)(=O)c2ccc(Cl)cc2)oc1C(=O)Nc1nc(-c2ccccn2)cs1 [Example 52]
IC50 [1, 3]: 500 to 1000 nM

IC50 [2, 5]: < 200 nM
SMILES: Cc1nnc(-c2ccc(-c3nc(C)oc3C(=O)Nc3nc(-c4ccccn4)cs3)cc2)o1 [Example 65]
IC50 [1, 5]: < 200 nM

IC50 [2, 4]: 500 to 1000 nM
SMILES: CN(C)C(=O)c1ccc(-c2ncoc2C(=O)Nc2nc(-c3ccccn3)cs2)cc1 [Example 41]
IC50 [1, 3]: 500 to 1000 nM

IC50 [2, 4]: 200 to 500 nM
SMILES: Cc1nc(-c2ccc(-c3nnc[nH]3)cc2)c(C(=O)Nc2nc(-c3ccccn3)cs2)o1 [Example 67]
IC50 [1, 3]: 200 to 500 nM

IC50 [2, 4]: < 200 nM
SMILES: CC(C)S(=O)(=O)N(C)c1nc(-c2ccc(F)cc2)c(C(=O)Nc2nc(-c3ccccn3)cs2)o1 [Example 58]
IC50 [1, 3]: < 200 nM

IC50 [2, 5]: 500 to 1000 nM
SMILES: CN(c1ncc(C(=O)Nc2nc(-c3ccccn3)cs2)o1)S(=O)(=O)c1ccc(Cl)cc1 [Example 38]
IC50 [1, 5]: 200 to 500 nM

IC50 [2, 5]: 200 to 500 nM
SMILES: O=C(Nc1nc(-c2ccccn2)cs1)c1oc(C(F)F)nc1-c1ccc(F)cc1 [Example 33]
IC50 [1, 5]: < 200 nM

IC50 [2, 4]: 200 to 500 nM
SMILES: CS(=O)(=O)c1ccc(F)cc1-c1ncoc1C(=O)Nc1nc(-c2ccccn2)cs1 [Example 47]
IC50 [1, 3]: 500 to 1000 nM

IC50 [2, 5]: < 200 nM
SMILES: Cc1onc(-c2ccc(C(F)(F)F)c(F)c2)c1C(=O)Nc1nc(-c2ccccn2)cs1 [Example 62]
IC50 [1, 5]: 200 to 500 nM

IC50 [2, 5]: 500 to 1000 nM
SMILES: CN(c1nc(C(F)(F)F)c(C(=O)Nc2nc(-c3ccccn3)cs2)o1)S(=O)(=O)c1ccccc1Cl [Example 56]
IC50 [1, 5]: 500 to 1000 nM
